According to patent US10370343B2, “[6,6] Fused bicyclic HDAC8 inhibitors” (FORMA Therapeutics, Inc., priority 2015, dated 2019):

Biological target: T1, Recombinant N-terminal GST tag full-length human HDAC8 (Homo sapiens, UniProt Q9BY41)
T1 construct: Recombinant N-terminal GST tag full-length human HDAC8; purchased SignalChem H90-30G-1000; host or cells: baculovirus in Sf9 insect cells
T1 sequence (Q9BY41 1-377): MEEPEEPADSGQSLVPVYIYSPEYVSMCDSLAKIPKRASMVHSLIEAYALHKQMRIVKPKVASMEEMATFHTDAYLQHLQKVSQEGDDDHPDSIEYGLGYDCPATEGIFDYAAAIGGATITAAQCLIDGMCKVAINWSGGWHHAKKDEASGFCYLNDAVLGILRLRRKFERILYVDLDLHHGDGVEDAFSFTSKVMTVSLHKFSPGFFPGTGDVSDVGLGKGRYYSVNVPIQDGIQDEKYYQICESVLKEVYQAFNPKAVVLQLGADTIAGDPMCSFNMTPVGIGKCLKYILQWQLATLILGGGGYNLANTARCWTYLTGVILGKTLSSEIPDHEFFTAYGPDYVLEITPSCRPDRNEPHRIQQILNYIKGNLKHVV
Experiment: HDAC8 probe binding assay, time resolved fluorescence (TRF) format
Details: compounds grouped by IC50 range (Table 2)
In short: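 IC50 values come from four-parameter logistic fits of percent inhibition, scaled between DMSO (high) and no-enzyme (low) controls. Time-resolved fluorescence (ex 340, em 485/535 nm) was read after 16 h at room temperature. Enzyme was Sf9-expressed full-length human HDAC8 with an N-terminal GST tag, in a probe-binding format.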

| SMILES | IC50 [µM] |
| --- | --- |
| COc1cc(F)cc(CN2C(=O)COc3ccc(C(=O)NO)cc32)c1 [Compound I-342, 4-(3-fluoro-5-methoxybenzyl)-N-hydroxy-3-oxo-3,4-dihydro-2H-benzo[b][1,4]oxazine-6-carboxamide] | 0.025 to 0.1 |
| O=C(NO)c1ccc2c(c1)N(Cc1cc(Cl)ccc1F)C(=O)CO2 [Compound I-348, 4-(5-chloro-2-fluorobenzyl)-N-hydroxy-3-oxo-3,4-dihydro-2H-benzo[b][1,4]oxazine-6-carboxamide] | ≤ 0.025 |
| O=C(NO)c1ccc2c(c1)N(Cc1cc(Cl)cc(C(F)(F)F)c1)C(=O)CO2 [Compound I-349, 4-(3-chloro-5-(trifluoromethyl)benzyl)-N-hydroxy-3-oxo-3,4-dihydro-2H-benzo[b][1,4]oxazine-6-carboxamide] | 0.025 to 0.1 |
| COc1cc(CN2C(=O)COc3ccc(C(=O)NO)cc32)ccc1Cl [Compound I-350, 4-(4-chloro-3-methoxybenzyl)-N-hydroxy-3-oxo-3,4-dihydro-2H-benzo[b][1,4]oxazine-6-carboxamide] | ≤ 0.025 |
| O=C(NO)c1ccc2c(c1)N(Cc1ccc(F)c(Cl)c1)C(=O)CO2 [Compound I-351, 4-(3-chloro-4-fluorobenzyl)-N-hydroxy-3-oxo-3,4-dihydro-2H-benzo[b][1,4]oxazine-6-carboxamide] | ≤ 0.025 |
| O=C(NO)c1ccc2c(c1)N(Cc1cc(F)ccc1Cl)C(=O)CO2 [Compound I-352, 4-(2-chloro-5-fluorobenzyl)-N-hydroxy-3-oxo-3,4-dihydro-2H-benzo[b][1,4]oxazine-6-carboxamide] | ≤ 0.025 |
| COc1cc(CN2C(=O)COc3ccc(C(=O)NO)cc32)ccc1F [Compound I-353, 4-(4-fluoro-3-methoxybenzyl)-N-hydroxy-3-oxo-3,4-dihydro-2H-benzo[b][1,4]oxazine-6-carboxamide] | 0.025 to 0.1 |
| O=C(NO)c1ccc2c(c1)N(Cc1cccc(C(F)(F)F)c1Cl)C(=O)CO2 [Compound I-354, 4-(2-chloro-3-(trifluoromethyl)benzyl)-N-hydroxy-3-oxo-3,4-dihydro-2H-benzo[b][1,4]oxazine-6-carboxamide] | 0.025 to 0.1 |
| O=C(NO)c1ccc2c(c1)N(Cc1cc(Cl)cc(Cl)c1)C(=O)CO2 [Compound I-355, 4-(3,5-dichlorobenzyl)-N-hydroxy-3-oxo-3,4-dihydro-2H-benzo[b][1,4]oxazine-6-carboxamide] | ≤ 0.025 |
| O=C(NO)c1ccc2c(c1)N(Cc1ccc(C(F)(F)F)cc1Cl)C(=O)CO2 [Compound I-356, 4-(2-chloro-4-(trifluoromethyl)benzyl)-N-hydroxy-3-oxo-3,4-dihydro-2H-benzo[b][1,4]oxazine-6-carboxamide] | ≤ 0.025 |
| O=C(NO)c1ccc2c(c1)N(Cc1nc3cccnc3s1)C(=O)CO2 [Compound I-359, N-hydroxy-3-oxo-4-(thiazolo[5,4-b]pyridin-2-ylmethyl)-3,4-dihydro-2H-benzo[b][1,4]oxazine-6-carboxamide] | ≤ 0.025 |
| CN(C)C(=O)c1ccc(CN2C(=O)COc3ccc(C(=O)NO)cc32)cc1 [Compound I-360, 4-(4-(dimethylcarbamoyl)benzyl)-N-hydroxy-3-oxo-3,4-dihydro-2H-benzo[b][1,4]oxazine-6-carboxamide] | 0.025 to 0.1 |
| CN(C)c1ccc(CN2C(=O)COc3ccc(C(=O)NO)cc32)cc1 [Compound I-361, 4-(4-(dimethylamino)benzyl)-N-hydroxy-3-oxo-3,4-dihydro-2H-benzo[b][1,4]oxazine-6-carboxamide] | ≤ 0.025 |
| NC(=O)c1ccc(CN2C(=O)COc3ccc(C(=O)NO)cc32)cc1 [Compound I-362, 4-(4-carbamoylbenzyl)-N-hydroxy-3-oxo-3,4-dihydro-2H-benzo[b][1,4]oxazine-6-carboxamide] | ≤ 0.025 |
| O=C(NO)c1ccc2c(c1)N(Cc1cn3ccsc3n1)C(=O)CO2 [Compound I-363, N-hydroxy-4-(imidazo[2,1-b]thiazol-6-ylmethyl)-3-oxo-3,4-dihydro-2H-benzo[b][1,4]oxazine-6-carboxamide] | 0.025 to 0.1 |
| Cc1ccn2cc(CN3C(=O)COc4ccc(C(=O)NO)cc43)nc2c1 [Compound I-364, N-hydroxy-4-((7-methylimidazo[1,2-a]pyridin-2-yl)methyl)-3-oxo-3,4-dihydro-2H-benzo[b][1,4]oxazine-6-carboxamide] | 0.025 to 0.1 |
| Cc1ccc2nc(CN3C(=O)COc4ccc(C(=O)NO)cc43)cn2c1 [Compound I-365, N-hydroxy-4-((6-methylimidazo[1,2-a]pyridin-2-yl)methyl)-3-oxo-3,4-dihydro-2H-benzo[b][1,4]oxazine-6-carboxamide] | 0.025 to 0.1 |
| O=C(NO)c1ccc2c(c1)N(Cc1cn3cc(F)ccc3n1)C(=O)CO2 [Compound I-368, 4-((6-fluoroimidazo[1,2-a]pyridin-2-yl)methyl)-N-hydroxy-3-oxo-3,4-dihydro-2H-benzo[b][1,4]oxazine-6-carboxamide] | 0.025 to 0.1 |
| CC(C)NC(=O)c1ccc(CN2C(=O)COc3ccc(C(=O)NO)cc32)cc1 [Compound I-369, N-hydroxy-4-(4-(isopropylcarbamoyl)benzyl)-3-oxo-3,4-dihydro-2H-benzo[b][1,4]oxazine-6-carboxamide] | 0.025 to 0.1 |
| COc1ccc(F)c(CN2C(=O)COc3ccc(C(=O)NO)cc32)c1 [Compound I-371, 4-(2-fluoro-5-methoxybenzyl)-N-hydroxy-3-oxo-3,4-dihydro-2H-benzo[b][1,4]oxazine-6-carboxamide] | ≤ 0.025 |
| N#Cc1ccc(CN2C(=O)COc3ccc(C(=O)NO)cc32)c(Cl)c1 [Compound I-372, 4-(2-chloro-4-cyanobenzyl)-N-hydroxy-3-oxo-3,4-dihydro-2H-benzo[b][1,4]oxazine-6-carboxamide] | ≤ 0.025 |
| N#Cc1ccc(Cl)c(CN2C(=O)COc3ccc(C(=O)NO)cc32)c1 [Compound I-373, 4-(2-chloro-5-cyanobenzyl)-N-hydroxy-3-oxo-3,4-dihydro-2H-benzo[b][1,4]oxazine-6-carboxamide] | ≤ 0.025 |

Other lines, results leading:

| IC50 [µM] | SMILES |
| --- | --- |
| ≤ 0.025 | O=C(NO)c1ccc2c(c1)N(Cc1cc3ccccc3cn1)C(=O)CO2 [Compound I-334, N-hydroxy-4-(isoquinolin-3-ylmethyl)-3-oxo-3,4-dihydro-2H-benzo[b][1,4]oxazine-6-carboxamide] |
| ≤ 0.025 | O=C(NO)c1ccc2c(c1)N(Cc1ccc3cccnc3c1)C(=O)CO2 [Compound I-335, N-hydroxy-3-oxo-4-(quinolin-ylmethyl)-3,4-dihydro-2H-benzo[b][1,4]oxazine-6-carboxamide] |
| ≤ 0.025 | O=C(NO)c1ccc2c(c1)N(Cc1ccc3cnccc3c1)C(=O)CO2 [Compound I-336, N-hydroxy-4-(isoquinolin-6-ylmethyl)-3-oxo-3,4-dihydro-2H-benzo[b][1,4]oxazine-6-carboxamide] |
| ≤ 0.025 | O=C(NO)c1ccc2c(c1)N(Cc1ccc3ccncc3c1)C(=O)CO2 [Compound I-337, N-hydroxy-4-(isoquinolin-7-ylmethyl)-3-oxo-3,4-dihydro-2H-benzo[b][1,4]oxazine-6-carboxamide] |
| ≤ 0.025 | O=C(NO)c1ccc2c(c1)N(Cc1ccn3ccnc3c1)C(=O)CO2 [Compound I-338, N-hydroxy-4-(imidazo[1,2-a]pyridin-7-ylmethyl)-3-oxo-3,4-dihydro-2H-benzo[b][1,4]oxazine-6-carboxamide] |
| ≤ 0.025 | O=C(NO)c1ccc2c(c1)N(Cc1ccn3nccc3c1)C(=O)CO2 [Compound I-339, N-hydroxy-3-oxo-4-(pyrazolo[1,5-a]pyridin-5-ylmethyl)-3,4-dihydro-2H-benzo[b][1,4]oxazine-6-carboxamide] |
| ≤ 0.025 | O=C(NO)c1ccc2c(c1)N(Cc1cccc(Cl)c1F)C(=O)CO2 [Compound I-340, 4-(3-chloro-2-fluorobenzyl)-N-hydroxy-3-oxo-3,4-dihydro-2H-benzo[b][1,4]oxazine-6-carboxamide] |
| ≤ 0.025 | COc1ccc(CN2C(=O)COc3ccc(C(=O)NO)cc32)c(F)c1 [Compound I-341, 4-(2-fluoro-4-methoxybenzyl)-N-hydroxy-3-oxo-3,4-dihydro-2H-benzo[b][1,4]oxazine-6-carboxamide] |
| ≤ 0.025 | O=C(NO)c1ccc2c(c1)N(Cc1cc(F)cc(Cl)c1)C(=O)CO2 [Compound I-343, 4-(3-chloro-5-fluorobenzyl)-N-hydroxy-3-oxo-3,4-dihydro-2H-benzo[b][1,4]oxazine-6-carboxamide] |
| ≤ 0.025 | O=C(NO)c1ccc2c(c1)N(Cc1ccc(Cl)cc1F)C(=O)CO2 [Compound I-344, 4-(4-chloro-2-fluorobenzyl)-N-hydroxy-3-oxo-3,4-dihydro-2H-benzo[b][1,4]oxazine-6-carboxamide] |
| ≤ 0.025 | O=C(NO)c1ccc2c(c1)N(Cc1ccc(Cl)c(C(F)(F)F)c1)C(=O)CO2 [Compound I-345, 4-(4-chloro-3-(trifluorornethyl)benzyl)-N-hydroxy-3-oxo-3,4-dihydro-2H-benzo[b][1,4]oxazine-6-carboxamide] |
| ≤ 0.025 | O=C(NO)c1ccc2c(c1)N(Cc1ccc(Cl)c(F)c1)C(=O)CO2 [Compound I-346, 4-(4-chloro-3-fluorobenzyl)-N-hydroxy-3-oxo-3,4-dihydro-2H-benzo[b][1,4]oxazine-6-carboxamide] |
| ≤ 0.025 | COc1ccc(Cl)c(CN2C(=O)COc3ccc(C(=O)NO)cc32)c1 [Compound I-347, 4-(2-chloro-5-methoxybenzyl)-N-hydroxy-3-oxo-3,4-dihydro-2H-benzo[b][1,4]oxazine-6-carboxamide] |
